Molecular target: LRRK2 (Homo sapiens (Human), UniProt Q5S007, G2019S)
Assay: In Vitro LRRK2 Assay (LRRK2 Ki)
Assay type: biochemical
Method: In Vitro LRRK2 Lanthascreen Binding Assay
This assay was used to determine a compound's potency in inhibiting activity of LRRK2 by determining, Kiapp, IC50, or percent inhibition values.
Binding of the Alexa Fluor® “tracer” to a kinase is detected by addition of a Eu-labeled anti-GST antibody.
12 pt curve. […] Stamp 5 ul to assay plate. Final top test concentration 100 uM
In Reaction Buffer, 5 ul of DMSO (3%) was added to total and blank wells and 5 ul of Eu-labeled anti-GST antibody (6 nM) was added to blank wells. Add 5 ul LRRK2 (30 nM)/Eu-labeled anti-GST antibody (6 nM) mix to compound and total wells.
Incubate plates at room temperature for 1 hour on a plate shaker (gentle shaking). Read on Perkin Elmer EnVision reader HTRF protocol
Subtract mean background values from all data points. Calculate % of control for each test value. Plot % of control vs Compound concentration. Calculate Ki Value (xlfit curve fitting-Morrison equation). Results expressed as a Ki in μM. Equation for Ki: Y=V0*(1−((x+Ki*(1+S/Km)+Et)/(2*Et)−(((x+Ki*(1+S/Km)+Et)^2−(4*Et*x))^0.5)/(2*Et)))
This assay was used to determine a compound's potency in inhibiting activity of LRRK2 by determining, Kiapp, IC50, or percent inhibition values. In a polypropylene plate, LRRK2, fluorescently-labeled peptide substrate, ATP and test compound were incubated together. Using a LabChip 3000 (Caliper Life Sciences), after the reaction the substrate was separated by capillary electrophoresis into two populations: phosphorylated and unphosphorylated. The relative amounts of each were quantitated by fluorescence intensity. LRRK2 Ki was determined according to the equation: Y=V0*(1−((x+Ki*(1+S/Km)+Et)/(2*Et)−(((x+Ki*(1+S/Km)+Et)^2−(4*Et*x))^0.5)/(2*Et))).
Ki values in Table 4 and elsewhere herein are shown in μM.
For serial dilutions, 34.6 μl DMSO was added to columns 3-24.
In Complete Reaction Buffer, substrate was diluted to 4 μM. Equal volumes of Complete Reaction Buffer and 4 μM substrate were combined to obtain the blank. Equal volumes of Complete Reaction Buffer and 4 μM substrate were combined and to the combined solution was added 2× final LRRK2 concentration.
To a 50 μl polypropylene plate, 5 μl/well buffer/substrate was added by hand to Blank wells. A Biomek FX was used to start the kinase reaction (“PLK SAR 23 ATP”). The following were added to the appropriate wells:
The plate was incubated for 2 hours in the dark. Biomek FX was used to stop the kinase reaction (“PLK Stop”), and 10 μl/well Stop solution was added to the Assay Plate. Results were read on the LabChip 3000.
The LabChip 3000 was run using the job “LRRK2 IC50” with the following job settings: […]

LRRK2, sequence (Q5S007 whole entry G2019S): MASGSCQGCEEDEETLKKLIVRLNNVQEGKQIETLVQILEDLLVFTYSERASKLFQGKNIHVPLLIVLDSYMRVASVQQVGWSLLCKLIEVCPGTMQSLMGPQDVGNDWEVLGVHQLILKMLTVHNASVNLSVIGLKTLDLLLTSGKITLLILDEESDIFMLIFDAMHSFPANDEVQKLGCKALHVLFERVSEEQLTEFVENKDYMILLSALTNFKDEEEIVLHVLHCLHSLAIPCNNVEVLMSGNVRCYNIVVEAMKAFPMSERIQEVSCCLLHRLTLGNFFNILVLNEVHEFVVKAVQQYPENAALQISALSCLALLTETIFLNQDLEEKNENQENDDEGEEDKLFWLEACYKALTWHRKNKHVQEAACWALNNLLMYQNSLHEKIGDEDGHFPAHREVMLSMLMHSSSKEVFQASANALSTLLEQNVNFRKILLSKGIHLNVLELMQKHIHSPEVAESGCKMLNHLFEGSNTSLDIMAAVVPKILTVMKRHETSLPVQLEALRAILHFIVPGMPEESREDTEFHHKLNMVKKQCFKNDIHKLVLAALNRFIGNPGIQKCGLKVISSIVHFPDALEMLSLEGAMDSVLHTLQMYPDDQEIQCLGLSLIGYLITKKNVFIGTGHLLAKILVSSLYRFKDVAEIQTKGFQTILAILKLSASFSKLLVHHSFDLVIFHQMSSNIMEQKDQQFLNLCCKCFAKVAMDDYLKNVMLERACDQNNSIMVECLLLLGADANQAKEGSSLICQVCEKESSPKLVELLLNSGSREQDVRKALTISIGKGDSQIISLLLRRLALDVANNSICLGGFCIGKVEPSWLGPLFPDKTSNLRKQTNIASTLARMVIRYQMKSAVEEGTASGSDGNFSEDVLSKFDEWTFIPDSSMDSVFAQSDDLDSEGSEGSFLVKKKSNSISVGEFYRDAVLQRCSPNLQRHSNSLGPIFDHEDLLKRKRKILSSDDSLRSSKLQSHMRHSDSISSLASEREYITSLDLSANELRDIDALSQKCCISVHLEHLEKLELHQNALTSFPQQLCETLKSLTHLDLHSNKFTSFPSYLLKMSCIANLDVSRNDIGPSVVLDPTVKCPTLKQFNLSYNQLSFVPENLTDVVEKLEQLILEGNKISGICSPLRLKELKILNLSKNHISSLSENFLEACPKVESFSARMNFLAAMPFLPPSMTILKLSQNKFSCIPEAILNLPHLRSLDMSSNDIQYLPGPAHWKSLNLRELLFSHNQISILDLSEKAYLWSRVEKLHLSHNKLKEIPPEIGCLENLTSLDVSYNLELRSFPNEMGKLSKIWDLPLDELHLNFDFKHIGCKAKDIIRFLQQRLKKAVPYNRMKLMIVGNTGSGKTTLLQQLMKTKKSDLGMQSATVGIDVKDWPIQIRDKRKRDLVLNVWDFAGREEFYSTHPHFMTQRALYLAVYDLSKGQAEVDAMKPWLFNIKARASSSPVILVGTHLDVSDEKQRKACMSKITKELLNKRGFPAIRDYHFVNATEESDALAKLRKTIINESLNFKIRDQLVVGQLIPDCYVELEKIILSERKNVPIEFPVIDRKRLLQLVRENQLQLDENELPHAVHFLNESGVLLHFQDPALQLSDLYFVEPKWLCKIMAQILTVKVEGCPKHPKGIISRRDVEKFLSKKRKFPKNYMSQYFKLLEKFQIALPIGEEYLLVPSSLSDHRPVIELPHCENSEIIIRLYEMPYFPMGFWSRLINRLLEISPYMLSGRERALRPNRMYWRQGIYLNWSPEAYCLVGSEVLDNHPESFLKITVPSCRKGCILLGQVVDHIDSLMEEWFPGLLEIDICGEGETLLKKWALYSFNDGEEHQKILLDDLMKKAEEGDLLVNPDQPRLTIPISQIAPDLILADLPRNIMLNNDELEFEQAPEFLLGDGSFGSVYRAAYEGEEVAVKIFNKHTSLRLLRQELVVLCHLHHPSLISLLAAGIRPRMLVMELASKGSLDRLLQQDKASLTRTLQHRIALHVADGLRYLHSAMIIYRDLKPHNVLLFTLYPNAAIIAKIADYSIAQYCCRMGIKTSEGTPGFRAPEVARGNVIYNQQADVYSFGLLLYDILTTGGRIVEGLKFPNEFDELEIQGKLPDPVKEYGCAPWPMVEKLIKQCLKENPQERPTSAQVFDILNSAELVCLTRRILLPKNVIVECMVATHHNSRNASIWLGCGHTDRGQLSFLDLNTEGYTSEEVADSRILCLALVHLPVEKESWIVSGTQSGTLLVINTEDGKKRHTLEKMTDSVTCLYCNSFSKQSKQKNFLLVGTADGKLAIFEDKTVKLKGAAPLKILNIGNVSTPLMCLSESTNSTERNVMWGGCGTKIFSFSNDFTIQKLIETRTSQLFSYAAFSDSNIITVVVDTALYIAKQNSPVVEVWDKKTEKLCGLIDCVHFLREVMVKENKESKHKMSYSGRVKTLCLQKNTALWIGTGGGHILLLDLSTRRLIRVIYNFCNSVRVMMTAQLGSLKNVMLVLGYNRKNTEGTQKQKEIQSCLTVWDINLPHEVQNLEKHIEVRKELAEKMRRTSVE

| Ki [nM] | SMILES |
| --- | --- |
| 8.6 | CNc1nc(Nc2cc(C(C)(C)C#N)nn2C)ncc1C(F)(F)F [Example 45, 2-methyl-2-(1-methyl-5-((4-(methylamino)-5-(trifluoromethyl)pyrimidin-2-yl)amino)-1H-pyrazol-3-yl)propanenitrile] |
| 3 | Cc1nn(C(C)(C)C#N)cc1Nc1ncc(C#N)c(NC2CC2)n1 [Example 46, 2-((1-(2-cyanopropan-2-yl)-3-methyl-1H-pyrazol-4-yl)amino)-4-(cyclopropylamino)pyrimidine-5-carbonitrile] |
| 24.5 | CCNc1nc(Nc2cc(C#N)nn2C)ncc1C(F)(F)F [Example 50, 5-((4-(ethylamino)-5-(trifluoromethyl)pyrimidin-2-yl)amino)-1-methyl-1H-pyrazole-3-carbonitrile] |

— patent US9212173B2, “Pyrazole aminopyrimidine derivatives as LRRK2 modulators” (Genentech, Inc., priority 2012, dated 2015)
